Measurements as given in PMC6328172, “5-HT2 receptor binding, functional activity and selectivity in N-benzyltryptamines” (PLoS ONE, 2019).
Like-named read-outs stand apart in the source and are kept apart here.

Experiments:
human 5-HT2A receptor [1] = molecular target: T1, human 5-HT2A receptor (Homo sapiens, UniProt P28223); assay: Competition binding to the human 5-HT2A receptor ([3H]ketanserin, CHO-5-HT2A membranes); conditions: for Selectivity 5-HT2A/2C (binding): from Ki values, Table 1; for Ki: human receptor, [3H]ketanserin displacement, no unit in the table, nM, read-out: 5-HT2A Ki (in parentheses) (converted)
T1 construct: expressed in transfected cells; host or cells: CHO (CHO-5-HT2A cell line)

human 5-HT2C receptor [2] = molecular target: T2, human 5-HT2C receptor (Homo sapiens, UniProt P28335); assay: Competition binding to the human 5-HT2C receptor ([3H]mesulergine, HeLa-5-HT2C membranes); conditions: for Selectivity 5-HT2C/2A (binding, in parentheses): from Ki values, Table 1; for Ki: human receptor, [3H]mesulergine displacement, no unit in the table, nM, read-out: 5-HT2C Ki (in parentheses) (converted)
T2 construct: expressed in transfected cells; host or cells: HeLa (HeLa-5-HT2C cell line)
T2 sequence (P28335 33-458): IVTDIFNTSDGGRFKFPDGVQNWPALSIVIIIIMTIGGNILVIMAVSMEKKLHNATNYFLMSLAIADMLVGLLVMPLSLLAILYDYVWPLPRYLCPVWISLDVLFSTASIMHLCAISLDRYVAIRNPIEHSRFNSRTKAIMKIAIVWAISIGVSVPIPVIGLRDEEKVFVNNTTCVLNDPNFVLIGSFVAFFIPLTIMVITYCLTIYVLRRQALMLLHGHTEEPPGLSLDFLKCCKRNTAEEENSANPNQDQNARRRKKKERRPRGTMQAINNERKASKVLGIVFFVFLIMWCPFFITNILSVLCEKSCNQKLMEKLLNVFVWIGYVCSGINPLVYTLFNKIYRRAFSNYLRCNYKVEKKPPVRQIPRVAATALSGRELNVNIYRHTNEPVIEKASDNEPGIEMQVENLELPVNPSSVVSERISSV

human 5-HT2A receptor [3] = molecular target: T1, human 5-HT2A receptor; assay: Ca2+ mobilization in CHO h5-HT2A cells; format: cell-based; conditions: for Selectivity 5-HT2A/2C (functional): from EC50 values, Table 2; for Emax: relative efficacy, % of response to 5-HT
human 5-HT2C receptor [4] = molecular target: T2, human 5-HT2C receptor; assay: Ca2+ mobilization in HeLa h5-HT2C cells; format: cell-based; conditions: for EC50: Ca2+ mobilization, no unit in the table, nM, read-out: 5-HT2C EC50 (in parentheses) (converted); for Emax: HeLa, read-out: 5-HT2C % Emax; for Selectivity 5-HT2C/2A (functional, in parentheses): from EC50 values, Table 2
human 5-HT2B receptor = human 5-HT2B receptor (Homo sapiens, UniProt P41595); assay: Competition binding to the human 5-HT2B receptor ([3H]LSD, CHO-5-HT2B membranes)
[5] = Ca2+ mobilization, no unit in the table, nM, read-out: 5-HT2A EC50 (in parentheses) (converted)

T1 sequence (P28223 whole entry): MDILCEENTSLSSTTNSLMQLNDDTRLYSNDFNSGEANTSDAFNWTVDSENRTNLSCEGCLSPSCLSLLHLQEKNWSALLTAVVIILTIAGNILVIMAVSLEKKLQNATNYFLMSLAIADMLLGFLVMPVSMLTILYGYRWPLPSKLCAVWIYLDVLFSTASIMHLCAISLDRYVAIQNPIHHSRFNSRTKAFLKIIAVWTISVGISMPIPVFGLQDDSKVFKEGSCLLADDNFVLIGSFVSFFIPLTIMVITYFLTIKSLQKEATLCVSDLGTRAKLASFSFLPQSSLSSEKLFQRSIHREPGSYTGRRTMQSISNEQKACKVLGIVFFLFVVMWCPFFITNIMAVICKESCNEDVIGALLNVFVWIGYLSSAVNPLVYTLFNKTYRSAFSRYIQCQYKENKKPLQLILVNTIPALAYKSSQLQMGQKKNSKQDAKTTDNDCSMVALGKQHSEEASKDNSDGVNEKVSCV
Chain of human 5-HT2B receptor (P41595 whole entry): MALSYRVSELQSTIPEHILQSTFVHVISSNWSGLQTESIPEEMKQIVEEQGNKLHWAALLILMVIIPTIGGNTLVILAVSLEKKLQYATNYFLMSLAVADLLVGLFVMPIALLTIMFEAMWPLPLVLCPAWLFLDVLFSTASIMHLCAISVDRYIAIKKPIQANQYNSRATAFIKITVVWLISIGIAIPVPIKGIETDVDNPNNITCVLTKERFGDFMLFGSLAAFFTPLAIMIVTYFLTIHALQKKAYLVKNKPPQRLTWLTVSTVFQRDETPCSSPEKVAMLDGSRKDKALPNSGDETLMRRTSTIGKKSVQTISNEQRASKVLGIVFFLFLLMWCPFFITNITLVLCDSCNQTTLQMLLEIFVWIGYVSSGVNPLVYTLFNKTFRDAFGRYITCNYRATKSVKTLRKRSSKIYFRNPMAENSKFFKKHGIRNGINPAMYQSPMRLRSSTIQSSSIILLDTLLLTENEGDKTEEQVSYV

Row | Structure (SMILES) | Selectivity 5-HT2A/2C (binding) (human 5-HT2A receptor [1]) | Ki (human 5-HT2A receptor [1]) [nM] | Selectivity 5-HT2C/2A (binding, in parentheses) (human 5-HT2C receptor [2]) | Ki (human 5-HT2C receptor [2]) [nM] | functional activity at h5-HT2A receptor (in words) (human 5-HT2A receptor [3]; Ca2+ mobilization) | EC50 (human 5-HT2C receptor [4]) [nM] | Emax (human 5-HT2C receptor [4]) [%] | Ki (human 5-HT2B receptor) [nM] | EC50 (human 5-HT2A receptor [3]; [5]) [nM] | Selectivity 5-HT2A/2C (functional) (human 5-HT2A receptor [3]) | Emax (human 5-HT2A receptor [3]) [%] | Selectivity 5-HT2C/2A (functional, in parentheses) (human 5-HT2C receptor [4]) | EC50 (human 5-HT2A receptor [3]; Ca2+ mobilization, pEC50 ± SEM, read-out: 5-HT2A pEC50 (converted)) [nM]
1 | Brc1ccc(CNCCc2c[nH]c3ccccc23)cc1 [Compound 17, N-(4-Bromobenzyl)-[2-(1H-indol-3-yl)ethyl]amine] | 1.09 | 1000 | 0.92 | 1070 | too low for quantification | 6760 | 110 ± 4.3 | 263 | – | – | – | – | –
2 | COc1ccc2[nH]cc(CCNCc3ccccc3Br)c2c1 [Compound 40, N-(2-Bromobenzyl)-[2-(5-methoxy-1H-indol-3-yl)ethyl]amine] | 5.66 | 12.3 | 0.18 | 70.8 | – | 27.5 | 105 ± 4.32 | 28.8 | 29.5 | 0.93 | 44.8 ± 0.99 | 1.07 | –
3 | COc1ccc(OC)c(CNCCc2c[nH]c3ccccc23)c1 [Compound 29, N-(2,5-Dimethoxybenzyl)-[2-(1H-indol-3-yl)ethyl]amine] | 0.26 | 331 | 3.85 | 87.1 | – | 132 | 118 ± 4.45 | 57.5 | 3470 | 0.038 | 39 ± 0.67 | 26.3 | –
4 | Oc1ccccc1CNCCc1c[nH]c2ccccc12 [Compound 2, N-(2-Hydroxybenzyl)-[2-(1H-indol-3-yl)ethyl]amine] | 0.73 | 115 | 1.37 | 85.1 | – | 33.9 | 85.8 ± 2.83 | 67.6 | 200 | 0.17 | 94.1 ± 4.59 | 5.89 | –
5 | Oc1cccc(F)c1CNCCc1c[nH]c2ccccc12 [Compound 34, N-(6-Fluoro-2-hydroxybenzyl)-[2-(1H-indol-3-yl)ethyl]amine] | – | 229 | – | 155 | – | 18.6 | 91.7 ± 6.6 | 115 | 39.8 | 0.47 | 49.3 ± 3.23 | 2.13 | –
6 | Cc1ccc(O)c(CNCCc2c[nH]c3ccccc23)c1 [Compound 23, N-(2-Hydroxy-5-methylbenzyl)-[2-(1H-indol-3-yl)ethyl]amine] | 0.36 | 741 | 2.77 | 269 | – | 100 | 89.4 ± 3.86 | 155 | 110 | 0.91 | 43.6 ± 0.9 | 1.10 | –
7 | Fc1cccc(CNCCc2c[nH]c3ccccc23)c1 [Compound 9, N-(3-Fluorobenzyl)-[2-(1H-indol-3-yl)ethyl]amine] | 0.84 | 257 | 1.19 | 214 | – | 112 | 112 ± 4.84 | 126 | 389 | 0.29 | 33.8 ± 4.01 | 3.47 | –
8 | COc1ccc(Cl)cc1CNCCc1c[nH]c2ccccc12 [Compound 28, N-(5-Chloro-2-methoxybenzyl)-[2-(1H-indol-3-yl)ethyl]amine] | 1.35 | 977 | 0.74 | 1320 | – | 240 | 110 ± 3.35 | 794 | 8910 | 0.027 | 69.2 ± 2.67 | 37.2 | 8910
